Results: patent publication US10647680B2, “Urea compound, preparation method therefor and medical use thereof” (Ancureall Pharmaceutical (Shanghai) Co., Ltd., priority 2016, dated 2020)
Structures can show the parent of a compound that is named as a salt.

Legend:
[1] = Stability test: high temperature test (60° C.); assay type: physicochemical; details: exposed at 60° C. for 10 days, HPLC
Experimental: The test samples were placed into an integrated drug stability test chamber (YSEI) in an exposed way at 60° C. for 10 days. Samples were taken on the 5th and 10th days and tested according to the drug stability test indices.
(§1) An appropriate amount of test samples was taken and dissolved in acetonitrile-water (1:1), and quantitatively diluted to a solution of about 0.3 mg/ml. 20 ul of solution was injected into a liquid chromatograph (Agilent 1260 Infinity), the chromatogram was then recorded and calculated according to the percentage area method. The mobile phase was a phosphate buffer and acetonitrile aqueous solution, and then a gradient elution was carried out.

[2] = Stability test: high humidity test (90%); assay type: physicochemical; details: 25° C., relative humidity 90%±5%, 10 days, HPLC
Experimental: The test samples were placed into an integrated drug stability test chamber (YSEI) in an exposed way at 25° C. and relative humidity of 90%±5% for 10 days. Samples were taken on the 5th and 10th days and tested according to the drug stability test indices.
as §1

Solubility test = assay type: physicochemical; details: in water at 25° C.±2° C.
Experimental: The fine powder of the test sample was weighed into an appropriate amount of water at 25° C.±2° C. and shaken vigorously for 30 seconds every 5 minutes so that it was fully dissolved within 30 minutes. If no visible solute particles were observed, it was considered completely dissolved. “Readily soluble” means that 1 g of the test sample could be dissolved in 1-10 ml of water; and “soluble” means that 1 g of the test sample could be dissolved in 10-30 ml of water; “slightly soluble” means that 1 g of the test sample could be dissolved in 30-100 ml of water; and “sparingly soluble” means that 1 g of the test sample could be dissolved in 100-1,000 ml of water; “nearly insoluble or insoluble” means that 1 g of the test sample could not be completely dissolved in 10,000 ml of water.

[3] = Stability test: intense light test (4500LX); assay type: physicochemical; details: 4500LX±500LX light for 10 days, HPLC
Experimental: The test samples were placed into an integrated drug stability test chamber (YSEI) in an exposed way under 4500LX±500LX light for 10 days. Samples were taken on the 5th and 10th days and tested according to the drug stability test indices.
as §1

[4] = test system: MV4-11 cell Bab/c nude mouse tumor model; assay: In vivo tumor growth inhibition experiment; details: for effect on body weight of nude mice: compared with the solvent control group
Experimental: Xenotransplantation in immunodeficient mice is an effective model for testing in vivo antitumor activity of compounds in animals. Bab/c immunodeficient mice are one of the most commonly used tumor cell xenografts. […] Log-phase MV4-11 cells were collected in a 50 ml of centrifuge tube (Corning), centrifuged at 1,700 rpm for 3 minutes, and the supernatant was discarded. Cells were suspended in a 50 ml 1×RPMI 1640 serum-free medium, and centrifuged, the supernatant was discarded and resuspension was performed. The cells were counted (Countess® Automated Cell Counting Apparatus, Invitrogen), prepared into […], placed on ice, and inoculated subcutaneously with 10×10^6 (0.2 ml) to the right back of 6-8-week female Bab/c nude mice (about 20 g in weight) (purchased from Shanghai Sippr-BK Experimental Animal Co., Ltd., Animal Center of Shanghai University of Traditional Chinese Medicine, approved by Ethical Committee of Shanghai University of Traditional Chinese Medicine). When the tumor grew to a size of 100-200 mm^3, animals were randomly grouped and earmarked and weighed. The treatment group consisted of 3 to 6 nude mice in each group. Drugs were prepared into different concentrations of milky suspension with a solvent PTP solution (30% polyethylene glycol 400, 0.5% Tween-80, 2.5% propylene glycol). Animals were given by oral gavage continuously at a concentration of 0.1 ml/10 g body weight, with a dose range of 0.1-200 mg/kg (the purity of the test compound of the present invention was 99% or more, and the proportion of single impurity was not more than 0.1%). In the control group, 3 to 6 nude mice in each group were given the same volume (0.1 ml/10 g body weight) of solvent PTP solution, and the tumors were measured 3 to 4 times per week. When the average tumor volume in the control group reached 1500 mm^3, or on the 28th day of administration, the experiment ended, then the tumor was weighed and subjected to molecular pathology assay.
The tumor volume was calculated as V=½a×b^2, where a is the length and b is the width. The relative tumor volume (RTV) was calculated based on the measured results and the formula was RTV=Vt/V0, where V0 is the measured tumor volume when administered in divided cages (i.e., do), and Vt is the tumor volume at each measurement.

| SMILES | Tumor Inhibition Rate (%) ([4]; Dose 2.5 mg/kg, Day 6) | Tumor Inhibition Rate (%) ([4]; Dose 2.5 mg/kg, Day 10) | Tumor Inhibition Rate (%) ([4]; Dose 2.5 mg/kg, Day 15) | Tumor Inhibition Rate (%) ([4]; Dose 2.5 mg/kg, Day 20) | Tumor Inhibition Rate (%) ([4]; Dose 2.5 mg/kg, Day 28) | Tumor Inhibition Rate (%) ([4]; Dose 5 mg/kg, Day 6) | Tumor Inhibition Rate (%) ([4]; Dose 5 mg/kg, Day 10) | Tumor Inhibition Rate (%) ([4]; Dose 5 mg/kg, Day 15) | Tumor Inhibition Rate (%) ([4]; Dose 5 mg/kg, Day 20) | Tumor Inhibition Rate (%) ([4]; Dose 5 mg/kg, Day 28) | Tumor Inhibition Rate (%) ([4]; Dose 10 mg/kg, Day 6) | Tumor Inhibition Rate (%) ([4]; Dose 10 mg/kg, Day 10) | Tumor Inhibition Rate (%) ([4]; Dose 10 mg/kg, Day 15) | Tumor Inhibition Rate (%) ([4]; Dose 10 mg/kg, Day 20) | Tumor Inhibition Rate (%) ([4]; Dose 10 mg/kg, Day 28) | Tumor Inhibition Rate (%) ([4]; Dose 25 mg/kg, Day 6) | Tumor Inhibition Rate (%) ([4]; Dose 25 mg/kg, Day 10) | Tumor Inhibition Rate (%) ([4]; Dose 25 mg/kg, Day 15) | Tumor Inhibition Rate (%) ([4]; Dose 25 mg/kg, Day 20) | Tumor Inhibition Rate (%) ([4]; Dose 25 mg/kg, Day 28) | other results |
| --- | --- | --- | --- | --- | --- | --- | --- | --- | --- | --- | --- | --- | --- | --- | --- | --- | --- | --- | --- | --- | --- |
| COCCOc1ccc2c(c1)ncn2-c1ccc(NC(=O)Nc2cc(C(C)(C)C)n[nH]2)cc1 [Compound 77 Mesylate, 1-(5-tert-butyl-2H-pyrazol-3-yl)-3-{4-[5-(2-methoxyl-ethoxyl)-benzimidazol-1-yl]-phenyl}-urea] |  |  |  |  |  |  |  |  |  |  |  |  |  |  |  |  |  |  |  |  | High temperature (60° C.) [1]: stable; High Humidity (90%) [2]: stable; Solubility (Solubility test; listed as 77 Mesylate): soluble (“soluble” means that 1 g of the test sample could be dissolved in 10-30 ml of water); Lighting (4500 LX) [3]: stable |
| CC(C)(C)c1cc(NC(=O)Nc2ccc(-n3cnc4ccccc43)cc2)[nH]n1 [Compound 68, 1-(4-benzimidazol-1-yl-phenyl)-3-(5-tert-butyl-2H-pyrazol-3-yl)-urea] | 14.6 | 16.2 | 17.8 | 37.5 | 35.3 | 67.9 | 71.6 | 58.5 | 50.1 | 62.5 | 68.9 | 81.7 | 90.2 | 94.8 | 98.7 | 86.0 | 92.5 | 93.4 | 96.7 | 100.0 | Tumor Inhibition Rate (%) ([4]; Dose 50 mg/kg, Day 6): 92.8%; Tumor Inhibition Rate (%) ([4]; Dose 50 mg/kg, Day 10): 98.7%; Tumor Inhibition Rate (%) ([4]; Dose 50 mg/kg, Day 15): 100.0%; Tumor Inhibition Rate (%) ([4]; Dose 100 mg/kg, Day 6): 94.2%; Tumor Inhibition Rate (%) ([4]; Dose 100 mg/kg, Day 10): 100.0%; Tumor Inhibition Rate (%) ([4]; Dose 100 mg/kg, Day 15): 100.0%; Tumor Inhibition Rate (%) ([4]; Dose 200 mg/kg, Day 6): 98.9%; Tumor Inhibition Rate (%) ([4]; Dose 200 mg/kg, Day 10): 100.0%; Tumor Inhibition Rate (%) ([4]; Dose 200 mg/kg, Day 15): 100.0%; effect on body weight of nude mice ([4]; dose ≤25 mg/kg): no significant effect; inhibition rate of tumor growth ([4]; dose ≥25 mg/kg, oral gavage, 6th day after administration): more than 80%; tumor outcome ([4]; dose ≥25 mg/kg, oral gavage, 28th day): tumor disappears completely |
| CC(C)(C)c1cc(NC(=O)Nc2ccc(-n3cnc4cc(OCCN5CCOCC5)ccc43)cc2)no1 [Compound 16, 1-(5-tert-butyl-isoxazol-3-yl)-3-{4-[5-(2-morpholin-4-yl-ethoxyl)-benzimidazol-1-yl]-phenyl}-urea] | 82.4 | 96.8 | 100 | 100 |  |  |  |  |  |  |  |  |  |  |  |  |  |  |  |  | Solubility (Solubility test; listed as 16 Free base): insoluble (“nearly insoluble or insoluble” means that 1 g of the test sample could not be completely dissolved in 10,000 ml of water); tumor outcome ([4]; drug dose 2.5 mg/kg, 15th day of administration): tumor disappears completely; effect on body weight of nude mice ([4]; drug dose 2.5 mg/kg): no significant effect |
| COc1ccc2c(c1)ncn2-c1ccc(NC(=O)Nc2cc(C(C)(C)C)n[nH]2)cc1 [Compound 71, 1-(5-tert-butyl-2H-pyrazol-3-yl)-3-[4-(5-methoxyl-benzimidazol-1-yl)-phenyl]-urea] | 63.7 | 76.8 | 77.9 | 80.5 | 83.8 | 84.5 | 94.3 | 98.8 | 100.0 | 100 | 87.2 | 96.4 | 99.8 | 100 | 100 | 90.0 | 98.0 | 100.0 | 100.0 | 100 | Solubility (Solubility test; listed as 71 Free base): insoluble (“nearly insoluble or insoluble” means that 1 g of the test sample could not be completely dissolved in 10,000 ml of water); Tumor Inhibition Rate (%) ([4]; Dose 0.5 mg/kg, Day 6): 37.2%; Tumor Inhibition Rate (%) ([4]; Dose 0.5 mg/kg, Day 10): 34.5%; Tumor Inhibition Rate (%) ([4]; Dose 0.5 mg/kg, Day 15): 32.6%; Tumor Inhibition Rate (%) ([4]; Dose 0.5 mg/kg, Day 20): 36.9%; Tumor Inhibition Rate (%) ([4]; Dose 0.5 mg/kg, Day 28): 37.3%; Tumor Inhibition Rate (%) ([4]; Dose 1 mg/kg, Day 6): 62.2%; Tumor Inhibition Rate (%) ([4]; Dose 1 mg/kg, Day 10): 64.5%; Tumor Inhibition Rate (%) ([4]; Dose 1 mg/kg, Day 15): 69.6%; Tumor Inhibition Rate (%) ([4]; Dose 1 mg/kg, Day 20): 65.4%; Tumor Inhibition Rate (%) ([4]; Dose 1 mg/kg, Day 28): 66.6%; Tumor Inhibition Rate (%) ([4]; Dose 50 mg/kg, Day 6): 91.6%; Tumor Inhibition Rate (%) ([4]; Dose 50 mg/kg, Day 10): 99.0%; Tumor Inhibition Rate (%) ([4]; Dose 50 mg/kg, Day 15): 100.0%; Tumor Inhibition Rate (%) ([4]; Dose 200 mg/kg, Day 6): 93.1%; Tumor Inhibition Rate (%) ([4]; Dose 200 mg/kg, Day 10): 100.0%; Tumor Inhibition Rate (%) ([4]; Dose 200 mg/kg, Day 15): 100.0%; tumor growth inhibitory activity compared with compound 68 ([4]; MV4-11 xenograft): stronger tumor growth inhibitory activity; tumor growth inhibitory activity ([4]; dose of 1 to 2.5 mg/kg, oral gavage): obvious tumor growth inhibitory activity; effect on body weight of nude mice ([4]; dose ≤25 mg/kg): no significant effect |
